Results reported in US20230355773A1, “[…] DRUG CONJUGATES” (P.I.F. Entrepreneurs Ltd., priority 2020, published 2023).
Like-named read-outs stand apart in the source and are kept apart here.

Experiments:
[1] = system: non-infected macrophages (THP1 monocytes transformed with PMA); conditions: 10 µg/ml, live imaging, 8 hours, FIG. 2
Procedure: (§1) A macrophage killing assay was performed in order to determine potential of conjugates described herein for treatment of macrophage-related diseases. THP1 monocytes were transformed into macrophages for using phorbol myristate acetate (PMA). […] The data shown in FIG. […] In the figure, series 1 represents control macrophages which were not infected. Series 2, 3 and 4 represent the 0.1, 1 and 10 µg/ml dosages. The values shown in these series represented number of cells, as normalized to control, non-infected macrophages.
(§2) Media used for macrophage assay: RPMI with 10% FCS, supplemented with pencillin streptomycin and glutamine. The compounds were prepared in phosphate buffered saline with pH adjusted to 7.6 and were used immediately after preparation.
(§3) The experiment was performed according to the following schedule: • Monocyte to macrophage transformation: 0 to 48 hours • Macrophage Infection with Leishmania: 48-84 hours • Treatment with compound: 84 - 96 hours • Plate used for assay: Microscopy compatible glass bottom plate -24 wells.

in vivo = conditions: female, ICR, mouse
[2] = fasted mice
Procedure: CC57BL/6 mice aged approximately 9 weeks were weighed and acclimated to facility conditions. Animals were assigned to 3 treatment groups based on their body weights, creating homogenous groups of 5 mice in each group. After fasting, blood glucose of levels of mice were tested at time 0, at which time the test drug was administered, then subsequently at 30, 60, 90 and 120 minutes post administration, using blood glucose test strips.

[3] = system: activated macrophages (THP1 monocytes transformed with PMA, infected with Leishmania donovani); conditions: for activated macrophage survival: 0.1, 1 and 10 µg/ml, 12-14 hours of incubation, FIG. 1
Procedure: as §1, with “FIG. 1 represents macrophage survival percent after 12-14 hours of incubation with conjugates.” for “FIG.”
as §2
Infection of macrophage: The macrophages were infected with 5x times with Leishmania donovani - for a density of 1x10^5 monocytes transformed to macrophage, the infection density is 5 x 10^5 L.donovani.
as §3
The macrophages that were alive were counted in five different fields of the wells for different concentration and the average count was used for the assay. Based on the count of the control macrophages, the % was adjusted.

[4] = system: neuroinflammatory response induced by LPS; conditions: I5 100 µg per mouse s.c.
Procedure: 120 mice (female C57BL/6) mice approximately 6 weeks old were assigned into groups based on body weight, creating homogenous groups, and acclimated to facility conditions over 5 days.
A neuroinflammatory response was induced in all mice by intraperitoneal administration of 5 mg/kg of LPS. […] Group 2: dexamethasone at […]. Group 3: Vehicle. Test items were administered at the following time points: 30 minutes before LPS injection, 2 hours post-LPS injection and 10 hours post LPS injection (where applicable). 10 animals from each group were sacrificed at the following time points: 4, 8, 24 and 48 hours post LPS administration. Brains were collected and preserved in buffered 4% formaldehyde. Bronchoalveolar lavage fluid was extract from lungs of all animals.

[5] = system: cytokines levels after LPS induction; conditions: 100 µg per mouse s.c.
[6] = female, ICR, mouse, in vivo
[7] = 24 hours following LPS induction
[8] = plasma, parameters used for estimating t½
[9] = plasma, single IV, I5 200 mg/kg, dexamethasone sodium phosphate 40 mg/kg

C[C@@H]1C[C@H]2[C@@H]3CCC4=C/C(=N/OCCCO[C@H]5O[C@H](CO)[C@@H](O)[C@H](O)[C@@H]5O)C=C[C@]4(C)[C@@]3(F)[C@@H](O)C[C@]2(C)[C@@]1(O)C(=O)CO [Compound I5, 1-((8S,9R,10S,11S,13S,14S,16R,17R,E)-9-Fluoro-11,17-Dihydroxy-10,13,16-Trimethyl-3-((3-(((2S,3S,4S,5S,6R)-3,4,5–Trihydroxy-6-(Hydroxymethyl)Tetrahydro-2H-Pyran-2-yl)oxy)propoxy)imino)-6,7,8,9,10,11,12,13,14,15,16,17-Dodecahydro-3H-cyclopenta[a]phenanthren-17-yl)-2-Hydroxyethan-1-One]
effect on macrophages not activated by infection [1]: remained unchanged | half-life (in vivo; T½, plasma, table Parameters used for estimating t½ in plasma): 4.23 h | Tmax (in vivo; iv): 5 min | clearance (in vivo; iv): 178 mL/min/kg | half-life (in vivo; iv, T½, plasma, single IV, I5 200 mg/kg, dexamethasone sodium phosphate 40 mg/kg, table PK parameters in plasma): 4.23 h | Vd (in vivo; iv, Vss, plasma, single IV, I5 200 mg/kg, dexamethasone sodium phosphate 40 mg/kg): 12.1 L/kg | Vd (in vivo; iv, Vz, plasma, single IV, I5 200 mg/kg, dexamethasone sodium phosphate 40 mg/kg): 65.3 L/kg | Vd (in vivo; iv, distribution volume, Vss, plasma, IV): 12.1 L/kg | half-life (in vivo; iv, terminal elimination half-life in plasma, mice after IV dosing): ~4.2 h | blood glucose relative to baseline ([2]; 100 µg per mouse, 30 to 120 minutes post-administration): not increased above baseline | blood glucose relative to baseline ([2]; 2500 µg per mouse (25-fold molar equivalent of 65 µg dexamethasone)): no elevation of blood glucose level | time to killing of activated macrophages ([3]; 10 µg/ml, live imaging, FIG. 2): ≤ 8 h | activated macrophage survival [3]: particularly effective | Clinical score - Appearance ([4]; 24 Hr. following LPS induction, vs groups 2 and 3): best clinical score | Clinical score - Eye condition [4, 7]: best clinical score | Clinical score - Response to stimulus [4, 7]: best clinical score | Total clinical score ([4]; compared to groups 2 and 3): best clinical score | blood-brain barrier penetration, evidenced by CNS cytokine levels ([5]; LPS model): able to penetrate the blood-brain barrier | Cytokines levels in Bronchoalveolar lavage fluid ([5]; IL-1 a and MCP1 (4 Hr. post LPS), MCP1 (8 Hr. post LPS)): immunomodulatory effect | Cytokines levels in brains ([5]; IL-2 (4 and 8 Hr. post LPS), IL-10 (8 Hr.), VEGF a (8 and 24 Hr.), vs groups 2 and 3): immunomodulatory effect | Cytokines levels in serum ([5]; IL-17 and RANTES (4 Hr. post LPS), LIF (8 Hr. post LPS)): immunomodulatory effect | relative systemic exposure (200 mg Compound I5 compared to 40 mg Dexamethasone): 4.2% | elimination curve in plasma (mice after IV dosing): two-phase elimination curve | AUC%Extrap [8]: 0.403% | Lambda z [8]: 0.164 h⁻¹ | AUCINF/Dose (plasma, single IV): 93.4 h^∗ng/mL/mg/kg | Exprel, relative systemic exposure [AUCinf/dose (Compound I5)/AUCinf/dose (Dexamethasone)] x 100 (plasma, single IV, I5 200 mg/kg vs dexamethasone 40 mg/kg): 4.2% | CL [9]: 178.33 mL/min/kg | Tlast [9]: 24.0 h | Concentration in brain (CSF) (pooled) [6]: 29.4 ng/mL | pooled CSF levels detected ([6]; iv): 6.86 to 29.4 ng/mL | CSF levels as fold the LLOQ (5.00 ng/mL) ([6]; iv, 200 mg/kg): 1.4-5.9 fold

CC(CC(=O)N/N=C(\CO)[C@@]1(O)[C@H](C)C[C@H]2[C@@H]3CCC4=CC(=O)C=C[C@]4(C)[C@@]3(F)C(O)C[C@@]21C)O[C@H]1OC(CO)[C@@H](O)C(O)C1O (stereo partly shown) [MD4]
activated macrophage survival [3]: particularly effective

C[C@@H]1C[C@H]2[C@@H]3CCC4=CC(=O)C=C[C@]4(C)[C@@]3(F)C(O)C[C@]2(C)[C@@]1(O)C(=O)CO (stereo partly shown) [dexamethasone, reference compound]
increase of blood sugar levels (change from baseline) ([2]; dexamethasone 65 mg (so in the source), 30 to 120 minutes post administration): about 15%
